Measurements taken from PMC9412875, “^64Cu-DOTHA2-PSMA, a Novel PSMA PET Radiotracer for Prostate Cancer with a Long Imaging Time Window” (Pharmaceuticals, 2022).

Tested on: LNCaP tumor
Assay: PET imaging of LNCaP tumor-bearing mice
Format: in vivo, NRG mice
Method: All the experiments were conducted according to a protocol approved by the Animal Ethics Committee of the Université de Sherbrooke and were in accordance with the guidelines of the Canadian Council on Animal Care. All animal manipulations that could cause pain, stress, or that required immobilization were performed under isoflurane anesthesia (2% in 2 L/min oxygen) with a heating pad or bed. When protocols required animal death (e.g., biodistribution) or ethical limits (e.g., tumor size) were reached, euthanasia was performed by CO2 inhalation under isoflurane anesthesia. […] For PET imaging, NRG mice were used (The Jack Laboratory, 7–10 weeks old, and 19–26 g at time of experiment). A total of 200 µL of a 1:1 Matrigel/PBS mixture containing […] LNCaP cells was injected subcutaneously on each shoulder of NRG mice. Experiments were initiated 2 to 4 weeks after inoculation when tumors reached a diameter between 5 and 10 mm.
Dynamic (0–1 h p.i.) and static (4 h, 20 min long and 24 h p.i., 1h long) PET assays were performed in combination with 5 min CT in NRG mice injected with 8 MBq of ^64Cu-DOTHA2-PSMA in 0.3 mL of saline through the tail vein (LabPET 8/-Triumph; Gamma Medica, Northridge, CA, USA). Blocking was achieved by the co-injection of 20 nmol of ^natCu-DOTHA2-PSMA (n = 3 per group). We selected this blocking agent because its pharmacokinetics are similar to ^64Cu-DOTHA2-PSMA. PET images were reconstructed using the three-dimensional maximum likelihood […] method (MLEM-3D) algorithm with 20 iterations and a 60 mm field-of-view (Gamma Medica). The analyses were conducted using AMIDE software 1.0.4. Quantitative image data were reported as %IA per volume (centimeter cube, cc).

With CN([O-])C(=O)CN1CCN(CC(=O)NCC2CCC(C(=O)NC(Cc3ccc4ccccc4c3)C(=O)NCCCCC(NC(=O)NC(CCC(=O)O)C(=O)O)C(=O)O)CC2)CCN(CC(=O)N(C)[O-])CCN(CC(=O)N(C)O)CC1.[64Cu+2] (stereo not drawn) [^64Cu-DOTHA2-PSMA] the “tumor uptake (PET)” value (1 h p.i., co-injection of blocking agent (20 nmol natCu-DOTHA2-PSMA)) was 4.78 ± 0.96 % IA/cc, the “liver uptake (PET, peak)” value (4 h p.i.) was 26.8 ± 5.3 % IA/cc and the “tumor uptake (PET)” value (4 h p.i., co-injection of blocking agent (20 nmol natCu-DOTHA2-PSMA)) was 7.46 ± 1.07 % IA/cc. For the same molecule, the “tumor uptake (PET)” value (24 h p.i., co-injection of blocking agent (20 nmol natCu-DOTHA2-PSMA)) was 8.62 ± 0.74 % IA/cc, the “tumor uptake (PET)” value (LNCaP tumor, NRG mice, 1 h p.i., non-blocked) was 14.0 ± 5.0 % IA/cc and the “tumor uptake (PET)” value (LNCaP tumor, NRG mice, 4 h p.i., non-blocked) was 23.8 ± 11.5 % IA/cc. For the same molecule, the “tumor uptake (PET)” value (LNCaP tumor, NRG mice, 24 h p.i., non-blocked) was 18.5 ± 6.6 % IA/cc, the “time of highest tumoral uptake” value (PET, LNCaP tumor) was 4 h p.i and the “time of peak kidney uptake, calyxes” value (dynamic PET) was 10 min p.i. For the same molecule, the “time of peak kidney uptake, cortex” value (dynamic PET) was 5 min p.i, the tumor-to-kidney ratios (from 1 h p.i.) was “greater than 1” and the “time of peak of urinary clearance (kidney calyxes and cortex signals)” value (time-activity curves) was no more than 10 min.
